Key:
Assay type in all cases: ADME, Microsome
Cytochrome P450 2C19 = Cytochrome P450 2C19 (Homo sapiens, UniProt P33261); assay: Time dependent inhibition of CYP2C19 in human liver microsomes at 40 uM using (S)-mephenytoin as substrate measured after 5 to 20 mins in presence of NADPH by LC/MS/MS analysis
Cytochrome P450 2D6 = Cytochrome P450 2D6 (Homo sapiens, UniProt P10635); assay: Time dependent inhibition of CYP2D6 in human liver microsomes at 40 uM using dextromethorphan as substrate measured after 5 to 20 mins in presence of NADPH by LC/MS/MS analysis
Cytochrome P450 1A2 = target: T1, Cytochrome P450 1A2 (Homo sapiens, UniProt P05177); assay: Time dependent inhibition of CYP1A2 in human liver microsomes at 40 uM using phenacetin as substrate measured after 5 to 20 mins in presence of NADPH by LC/MS/MS analysis
T1 sequence (P05177 whole entry): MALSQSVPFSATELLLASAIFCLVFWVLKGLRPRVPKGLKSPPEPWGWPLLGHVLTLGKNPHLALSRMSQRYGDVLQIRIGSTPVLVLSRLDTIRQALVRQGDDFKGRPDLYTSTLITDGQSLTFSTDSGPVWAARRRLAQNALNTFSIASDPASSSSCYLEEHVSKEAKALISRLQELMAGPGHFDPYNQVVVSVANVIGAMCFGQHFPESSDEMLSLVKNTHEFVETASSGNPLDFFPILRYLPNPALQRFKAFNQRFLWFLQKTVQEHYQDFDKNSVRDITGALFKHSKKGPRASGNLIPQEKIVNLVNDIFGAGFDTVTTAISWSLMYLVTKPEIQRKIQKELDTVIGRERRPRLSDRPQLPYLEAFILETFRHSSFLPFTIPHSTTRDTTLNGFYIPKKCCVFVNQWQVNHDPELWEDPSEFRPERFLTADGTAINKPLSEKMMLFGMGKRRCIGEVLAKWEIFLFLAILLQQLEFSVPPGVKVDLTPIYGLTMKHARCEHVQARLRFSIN

Cytochrome P450 2B6 = target: T2, Cytochrome P450 2B6 (Homo sapiens, UniProt P20813); assay: Time dependent inhibition of CYP2B6 in human liver microsomes at 40 uM measured after 5 to 20 mins in presence of NADPH by LC/MS/MS analysis
T2 sequence (P20813 whole entry): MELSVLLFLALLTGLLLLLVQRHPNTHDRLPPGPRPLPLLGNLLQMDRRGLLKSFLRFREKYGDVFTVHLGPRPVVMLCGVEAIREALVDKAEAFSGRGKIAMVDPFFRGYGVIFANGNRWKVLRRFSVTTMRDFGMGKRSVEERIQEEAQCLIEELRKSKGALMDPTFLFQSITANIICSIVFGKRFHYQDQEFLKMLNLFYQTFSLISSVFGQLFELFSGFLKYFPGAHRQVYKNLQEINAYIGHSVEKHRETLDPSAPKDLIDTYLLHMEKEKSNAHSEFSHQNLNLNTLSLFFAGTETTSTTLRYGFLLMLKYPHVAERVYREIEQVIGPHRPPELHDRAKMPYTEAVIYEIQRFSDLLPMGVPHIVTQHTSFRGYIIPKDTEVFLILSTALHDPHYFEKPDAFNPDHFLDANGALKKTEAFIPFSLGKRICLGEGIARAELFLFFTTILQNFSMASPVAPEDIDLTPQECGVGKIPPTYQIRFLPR

Measured: IC50

Chain of Cytochrome P450 2C19 (P33261 whole entry): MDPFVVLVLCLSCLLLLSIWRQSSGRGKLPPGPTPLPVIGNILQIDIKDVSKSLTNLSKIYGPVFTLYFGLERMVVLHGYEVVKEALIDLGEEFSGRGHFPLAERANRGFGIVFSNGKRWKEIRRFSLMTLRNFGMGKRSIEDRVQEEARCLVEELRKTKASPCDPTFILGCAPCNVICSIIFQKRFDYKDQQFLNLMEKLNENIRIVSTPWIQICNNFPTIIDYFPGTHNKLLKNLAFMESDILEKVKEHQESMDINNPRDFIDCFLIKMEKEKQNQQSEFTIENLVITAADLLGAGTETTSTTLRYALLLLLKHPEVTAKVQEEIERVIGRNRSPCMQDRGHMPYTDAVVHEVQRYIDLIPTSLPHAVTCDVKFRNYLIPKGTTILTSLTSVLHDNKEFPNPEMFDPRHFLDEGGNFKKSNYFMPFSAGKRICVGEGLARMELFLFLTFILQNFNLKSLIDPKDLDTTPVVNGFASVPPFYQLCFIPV
Chain of Cytochrome P450 2D6 (P10635 whole entry): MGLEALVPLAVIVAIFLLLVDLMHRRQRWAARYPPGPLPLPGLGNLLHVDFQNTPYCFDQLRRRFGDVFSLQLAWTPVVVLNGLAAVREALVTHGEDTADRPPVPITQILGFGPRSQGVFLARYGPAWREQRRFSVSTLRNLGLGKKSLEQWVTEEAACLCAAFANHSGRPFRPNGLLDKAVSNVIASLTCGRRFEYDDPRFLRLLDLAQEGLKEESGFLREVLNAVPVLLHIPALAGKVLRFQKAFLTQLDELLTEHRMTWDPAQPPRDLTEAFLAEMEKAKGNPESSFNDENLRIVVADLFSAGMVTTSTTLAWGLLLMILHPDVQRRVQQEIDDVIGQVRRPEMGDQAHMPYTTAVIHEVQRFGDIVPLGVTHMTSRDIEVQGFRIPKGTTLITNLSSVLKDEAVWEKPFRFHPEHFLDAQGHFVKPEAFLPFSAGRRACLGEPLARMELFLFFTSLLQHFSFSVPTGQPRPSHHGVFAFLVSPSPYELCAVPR

C[C@@H](C1CC1)N1Cc2cc(-c3ccn4nc(N)c(C(=O)N[C@H]5CC[C@@](C)(O)CC5)c4n3)cc(OC(F)F)c2C1=O
> 20 µM: all assays above

Reference: ChEMBL document CHEMBL5154644, “Design, Synthesis, and Structure-Activity Relationship Optimization of Pyrazolopyrimidine Amide Inhibitors of Phosphoinositide 3-Kinase γ (PI3Kγ)” (J Med Chem, 2022)
